Assay results: ChEMBL document CHEMBL5465560, “Selectivity Literature for EUbOPEN Chemogenomic Library” (2024)

Legend:
[1] = system: Tyrosine-protein kinase ABL1 (Homo sapiens), P00519 [F317I]; assay: (§1) Selectivity interaction (Ambit KINOMEscan and KiNATiv profiling in Jurkat cells) EUB0000090b ABL1; type: cell-based; settings: at 1 µM
[2] = system: Tyrosine-protein kinase ABL1 (Homo sapiens), P00519 [F317L]; assay: as §1; type: cell-based; settings: at 1 µM
[3] = system: Tyrosine-protein kinase ABL1 (Homo sapiens), P00519 [Y253F]; assay: as §1; type: cell-based; settings: at 1 µM
[4] = biological target: Serine/threonine-protein kinase MRCK alpha (Homo sapiens) (UniProt Q5VT25); assay: Selectivity interaction (Ambit KINOMEscan and KiNATiv profiling in Jurkat cells) EUB0000090b CDC42BPA; type: cell-based; settings: at 1 µM
Chain of Serine/threonine-protein kinase MRCK alpha (Homo sapiens) (Q5VT25 whole entry): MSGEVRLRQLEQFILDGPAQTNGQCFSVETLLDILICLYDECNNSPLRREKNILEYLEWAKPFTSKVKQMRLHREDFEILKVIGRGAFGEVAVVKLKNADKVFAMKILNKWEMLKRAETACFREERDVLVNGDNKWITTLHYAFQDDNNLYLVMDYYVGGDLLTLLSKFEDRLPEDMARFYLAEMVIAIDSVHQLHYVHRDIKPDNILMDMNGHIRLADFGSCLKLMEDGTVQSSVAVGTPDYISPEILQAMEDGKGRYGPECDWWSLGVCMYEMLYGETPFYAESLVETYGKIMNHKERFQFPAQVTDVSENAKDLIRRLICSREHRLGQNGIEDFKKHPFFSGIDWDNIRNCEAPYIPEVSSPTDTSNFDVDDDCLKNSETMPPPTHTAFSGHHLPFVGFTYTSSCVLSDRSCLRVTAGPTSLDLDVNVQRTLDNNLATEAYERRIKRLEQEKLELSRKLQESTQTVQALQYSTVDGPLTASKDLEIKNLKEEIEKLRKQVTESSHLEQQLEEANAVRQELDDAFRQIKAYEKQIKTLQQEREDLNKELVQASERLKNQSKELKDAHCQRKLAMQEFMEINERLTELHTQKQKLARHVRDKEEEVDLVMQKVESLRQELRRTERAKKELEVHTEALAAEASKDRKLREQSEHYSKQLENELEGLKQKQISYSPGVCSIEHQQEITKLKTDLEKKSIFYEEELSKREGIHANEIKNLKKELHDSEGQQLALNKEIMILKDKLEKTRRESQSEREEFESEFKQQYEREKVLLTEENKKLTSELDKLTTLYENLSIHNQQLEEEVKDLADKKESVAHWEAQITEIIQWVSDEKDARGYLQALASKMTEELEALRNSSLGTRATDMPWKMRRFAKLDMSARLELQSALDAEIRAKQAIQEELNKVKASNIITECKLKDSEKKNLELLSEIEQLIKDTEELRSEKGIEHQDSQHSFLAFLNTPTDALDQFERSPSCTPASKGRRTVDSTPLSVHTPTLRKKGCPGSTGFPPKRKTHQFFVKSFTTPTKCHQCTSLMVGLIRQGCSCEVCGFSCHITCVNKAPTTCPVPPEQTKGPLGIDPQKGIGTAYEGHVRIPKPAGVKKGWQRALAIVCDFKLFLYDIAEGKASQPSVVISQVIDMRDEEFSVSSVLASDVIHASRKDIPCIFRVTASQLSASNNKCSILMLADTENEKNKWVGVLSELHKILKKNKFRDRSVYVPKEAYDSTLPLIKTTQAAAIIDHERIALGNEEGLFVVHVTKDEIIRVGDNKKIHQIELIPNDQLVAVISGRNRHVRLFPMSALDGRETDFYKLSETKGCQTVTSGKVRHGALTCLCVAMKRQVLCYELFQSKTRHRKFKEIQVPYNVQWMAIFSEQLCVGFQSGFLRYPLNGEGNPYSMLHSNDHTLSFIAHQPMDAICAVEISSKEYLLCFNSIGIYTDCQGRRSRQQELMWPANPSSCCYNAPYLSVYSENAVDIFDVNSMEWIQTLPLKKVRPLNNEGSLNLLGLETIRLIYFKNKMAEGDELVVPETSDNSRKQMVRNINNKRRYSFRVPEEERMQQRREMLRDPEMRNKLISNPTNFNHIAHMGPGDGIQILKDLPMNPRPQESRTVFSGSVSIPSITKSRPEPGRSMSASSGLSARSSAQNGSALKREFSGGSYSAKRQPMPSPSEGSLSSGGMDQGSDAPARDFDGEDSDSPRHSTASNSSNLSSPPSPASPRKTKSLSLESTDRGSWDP

[5] = biological target: T1, Cyclin-dependent kinase-like 2 (Homo sapiens) (UniProt Q92772); assay: Selectivity interaction (KinomeScan (DiscoverX)) EUB0000618a CDKL2; settings: at 10 µM
T1 sequence (whole entry): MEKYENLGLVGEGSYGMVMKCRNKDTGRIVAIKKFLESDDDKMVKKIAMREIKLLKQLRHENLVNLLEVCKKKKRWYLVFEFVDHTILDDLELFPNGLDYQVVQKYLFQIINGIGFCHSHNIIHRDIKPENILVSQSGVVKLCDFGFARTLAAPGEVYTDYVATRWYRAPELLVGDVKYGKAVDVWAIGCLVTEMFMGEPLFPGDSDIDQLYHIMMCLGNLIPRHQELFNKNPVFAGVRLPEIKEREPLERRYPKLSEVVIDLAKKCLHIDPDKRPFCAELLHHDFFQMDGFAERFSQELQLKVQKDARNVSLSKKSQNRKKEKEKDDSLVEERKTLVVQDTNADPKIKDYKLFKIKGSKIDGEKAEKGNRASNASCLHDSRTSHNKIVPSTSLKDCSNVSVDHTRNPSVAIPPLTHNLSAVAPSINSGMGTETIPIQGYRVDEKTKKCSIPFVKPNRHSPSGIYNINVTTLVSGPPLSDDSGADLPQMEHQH

[6] = biological target: Calcium/calmodulin-dependent protein kinase kinase 2 (Homo sapiens) (UniProt Q96RR4); assay: Selectivity interaction (KinomeScan (DiscoverX)) EUB0000607a CAMKK2; settings: at 10 µM
Chain of Calcium/calmodulin-dependent protein kinase kinase 2 (Homo sapiens) (Q96RR4 2-588 limits assumed): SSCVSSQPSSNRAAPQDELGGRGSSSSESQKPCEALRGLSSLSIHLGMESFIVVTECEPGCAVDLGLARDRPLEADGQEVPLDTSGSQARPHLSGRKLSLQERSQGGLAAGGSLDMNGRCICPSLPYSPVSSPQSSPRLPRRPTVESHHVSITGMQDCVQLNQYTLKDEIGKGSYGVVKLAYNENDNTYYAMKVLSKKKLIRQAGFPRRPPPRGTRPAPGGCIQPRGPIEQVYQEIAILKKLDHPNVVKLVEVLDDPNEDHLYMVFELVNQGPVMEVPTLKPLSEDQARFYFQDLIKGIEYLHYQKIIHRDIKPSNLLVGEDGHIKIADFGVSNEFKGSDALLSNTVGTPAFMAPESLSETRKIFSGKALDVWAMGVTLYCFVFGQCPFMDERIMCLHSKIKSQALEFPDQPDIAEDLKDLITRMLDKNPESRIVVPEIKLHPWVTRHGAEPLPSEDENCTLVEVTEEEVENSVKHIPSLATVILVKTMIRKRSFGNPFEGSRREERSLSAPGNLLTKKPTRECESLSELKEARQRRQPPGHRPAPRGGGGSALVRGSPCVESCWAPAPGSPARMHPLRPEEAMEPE

[7] = biological target: Serine/threonine-protein kinase SMG1 (Homo sapiens) (UniProt Q96Q15); assay: Selectivity interaction (Kinase panel (KiNativ target engagement assay in Jurkat cells)) EUB0001635a SMG1; type: cell-based; settings: Selectivity number of off-targets 0.0, Selectivity number of targets 233.0, Source Knowledge https://www.sciencedirect.com/science/article/pii/S2451945619300674?via%3Dihub, at 1 µM
[8] = biological target: Mitogen-activated protein kinase 10 (Homo sapiens, UniProt P53779); settings: at 10 µM
Chain of Mitogen-activated protein kinase 10 (P53779 whole entry): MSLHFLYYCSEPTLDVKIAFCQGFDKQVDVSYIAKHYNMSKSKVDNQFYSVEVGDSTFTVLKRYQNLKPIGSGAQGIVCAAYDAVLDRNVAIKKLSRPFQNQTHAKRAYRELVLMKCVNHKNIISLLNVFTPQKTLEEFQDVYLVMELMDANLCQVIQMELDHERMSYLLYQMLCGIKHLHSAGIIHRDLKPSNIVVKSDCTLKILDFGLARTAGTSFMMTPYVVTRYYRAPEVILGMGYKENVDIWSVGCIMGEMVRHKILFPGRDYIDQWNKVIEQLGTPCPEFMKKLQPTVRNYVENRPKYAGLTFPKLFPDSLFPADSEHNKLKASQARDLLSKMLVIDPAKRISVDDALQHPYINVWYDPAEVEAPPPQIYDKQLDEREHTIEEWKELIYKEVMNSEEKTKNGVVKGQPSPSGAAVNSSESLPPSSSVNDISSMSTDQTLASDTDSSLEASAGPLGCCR

[9] = biological target: Serine/threonine-protein kinase N2 (Homo sapiens, UniProt Q16513); settings: at 10 µM
Chain of Serine/threonine-protein kinase N2 (Q16513 whole entry, looked up): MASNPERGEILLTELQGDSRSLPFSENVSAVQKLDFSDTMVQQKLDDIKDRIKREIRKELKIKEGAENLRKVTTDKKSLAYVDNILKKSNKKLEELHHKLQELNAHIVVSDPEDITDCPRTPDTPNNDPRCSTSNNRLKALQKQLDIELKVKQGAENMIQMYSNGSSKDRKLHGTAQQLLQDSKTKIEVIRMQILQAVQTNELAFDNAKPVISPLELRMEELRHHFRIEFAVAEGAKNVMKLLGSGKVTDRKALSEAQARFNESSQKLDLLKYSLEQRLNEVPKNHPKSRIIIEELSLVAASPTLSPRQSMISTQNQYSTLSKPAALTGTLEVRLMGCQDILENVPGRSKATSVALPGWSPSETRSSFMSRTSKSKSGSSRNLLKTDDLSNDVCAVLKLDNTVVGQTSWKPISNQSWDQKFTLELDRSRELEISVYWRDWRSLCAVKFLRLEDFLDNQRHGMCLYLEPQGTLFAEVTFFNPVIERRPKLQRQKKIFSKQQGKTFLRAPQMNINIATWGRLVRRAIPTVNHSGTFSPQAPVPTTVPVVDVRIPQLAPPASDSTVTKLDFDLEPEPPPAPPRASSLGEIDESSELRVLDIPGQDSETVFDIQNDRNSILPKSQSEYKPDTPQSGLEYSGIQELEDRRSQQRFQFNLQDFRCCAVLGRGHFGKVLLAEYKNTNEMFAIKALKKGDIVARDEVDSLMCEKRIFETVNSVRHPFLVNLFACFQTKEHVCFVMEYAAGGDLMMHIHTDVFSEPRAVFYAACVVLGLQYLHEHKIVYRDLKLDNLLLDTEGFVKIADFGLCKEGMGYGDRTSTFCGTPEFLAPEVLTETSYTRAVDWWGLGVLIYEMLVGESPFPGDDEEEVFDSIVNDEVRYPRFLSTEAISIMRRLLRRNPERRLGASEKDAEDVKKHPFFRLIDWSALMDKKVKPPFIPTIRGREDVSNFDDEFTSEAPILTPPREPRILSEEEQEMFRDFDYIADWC

[10] = biological target: Ribosomal protein S6 kinase alpha-3 (Homo sapiens, UniProt P51812); assay: Selectivity interaction (ActivX KiNativ screen (kinase selectivity in THP-1 cell lysates)) EUB0000639a RPS6KA3; type: subcellular; settings: lysate, at 0.04 µM
Chain of Ribosomal protein S6 kinase alpha-3 (P51812 whole entry): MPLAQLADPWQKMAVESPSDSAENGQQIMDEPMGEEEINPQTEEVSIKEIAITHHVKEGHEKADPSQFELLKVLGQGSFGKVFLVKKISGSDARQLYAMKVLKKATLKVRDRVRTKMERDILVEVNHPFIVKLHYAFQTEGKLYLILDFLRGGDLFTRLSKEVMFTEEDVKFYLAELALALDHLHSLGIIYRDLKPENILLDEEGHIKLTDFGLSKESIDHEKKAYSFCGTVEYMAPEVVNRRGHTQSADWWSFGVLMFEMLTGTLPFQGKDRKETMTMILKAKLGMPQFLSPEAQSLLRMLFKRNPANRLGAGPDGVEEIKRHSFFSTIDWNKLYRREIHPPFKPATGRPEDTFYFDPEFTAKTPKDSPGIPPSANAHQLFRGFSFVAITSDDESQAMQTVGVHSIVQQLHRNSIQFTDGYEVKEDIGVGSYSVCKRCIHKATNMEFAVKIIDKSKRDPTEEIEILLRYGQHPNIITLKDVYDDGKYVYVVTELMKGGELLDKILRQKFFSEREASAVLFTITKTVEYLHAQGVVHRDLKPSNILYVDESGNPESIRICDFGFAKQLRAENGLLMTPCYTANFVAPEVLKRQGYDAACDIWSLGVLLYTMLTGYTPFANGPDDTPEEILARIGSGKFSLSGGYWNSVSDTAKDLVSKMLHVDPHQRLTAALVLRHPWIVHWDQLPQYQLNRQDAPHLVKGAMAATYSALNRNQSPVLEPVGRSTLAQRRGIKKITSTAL

[11] = biological target: T2, Tyrosine-protein kinase Tec (Homo sapiens) (UniProt P42680); assay: Selectivity interaction (KinomeScan (DiscoverX)) EUB0000229b TEC; settings: at 10 µM
T2 sequence (whole entry): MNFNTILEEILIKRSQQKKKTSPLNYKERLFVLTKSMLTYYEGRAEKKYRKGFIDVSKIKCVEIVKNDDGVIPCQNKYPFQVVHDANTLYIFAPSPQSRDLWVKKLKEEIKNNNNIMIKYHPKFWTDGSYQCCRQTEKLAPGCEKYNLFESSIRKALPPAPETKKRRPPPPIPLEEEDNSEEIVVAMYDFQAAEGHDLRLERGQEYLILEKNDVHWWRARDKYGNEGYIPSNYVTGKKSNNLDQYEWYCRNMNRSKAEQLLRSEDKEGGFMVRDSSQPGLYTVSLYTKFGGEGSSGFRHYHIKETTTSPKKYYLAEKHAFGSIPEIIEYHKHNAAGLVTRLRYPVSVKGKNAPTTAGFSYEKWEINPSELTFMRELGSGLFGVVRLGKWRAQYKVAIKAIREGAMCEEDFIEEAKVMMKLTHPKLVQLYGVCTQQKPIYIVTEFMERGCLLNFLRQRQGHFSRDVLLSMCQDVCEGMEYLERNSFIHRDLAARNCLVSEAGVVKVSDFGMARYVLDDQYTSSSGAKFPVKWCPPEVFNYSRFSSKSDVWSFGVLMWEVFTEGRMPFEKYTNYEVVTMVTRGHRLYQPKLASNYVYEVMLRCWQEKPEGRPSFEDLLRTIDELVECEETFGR

[12] = biological target: T3, cGMP-dependent protein kinase 1 (Homo sapiens) (UniProt Q13976); assay: Selectivity interaction (ProQinase) EUB0000171b PRKG1
T3 sequence (whole entry): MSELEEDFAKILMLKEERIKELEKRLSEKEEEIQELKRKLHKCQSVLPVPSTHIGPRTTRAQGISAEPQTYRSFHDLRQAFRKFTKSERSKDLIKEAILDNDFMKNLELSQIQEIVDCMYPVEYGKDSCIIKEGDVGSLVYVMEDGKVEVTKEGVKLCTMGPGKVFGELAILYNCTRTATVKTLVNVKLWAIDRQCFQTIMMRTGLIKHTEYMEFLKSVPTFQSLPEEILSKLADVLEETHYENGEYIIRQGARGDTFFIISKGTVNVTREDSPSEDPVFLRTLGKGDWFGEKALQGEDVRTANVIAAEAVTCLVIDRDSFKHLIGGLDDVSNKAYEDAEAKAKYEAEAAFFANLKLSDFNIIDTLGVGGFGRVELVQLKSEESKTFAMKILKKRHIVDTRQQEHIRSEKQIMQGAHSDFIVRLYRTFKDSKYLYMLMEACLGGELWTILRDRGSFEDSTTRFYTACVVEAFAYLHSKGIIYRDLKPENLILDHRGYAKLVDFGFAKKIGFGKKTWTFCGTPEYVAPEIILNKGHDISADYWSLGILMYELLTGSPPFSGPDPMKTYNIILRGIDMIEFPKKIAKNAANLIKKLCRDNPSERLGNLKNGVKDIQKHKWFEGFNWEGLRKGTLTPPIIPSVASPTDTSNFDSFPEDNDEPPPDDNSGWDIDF

CN(C)C/C=C/C(=O)Nc1ccc(C(=O)N2CCCC(Nc3ncc(Cl)c(-c4c[nH]c5ccccc45)n3)C2)cc1 (stereo not drawn)
% of control [1]: 100%
% of control [2]: 91%
% of control [3]: 92%
% of control [4]: 86%

O[C@H]1CC[C@H](Nc2ncc3nc(Nc4c(F)cc(F)cc4F)n([C@H]4CCOC4)c3n2)CC1
% of control [5]: 100%

CNC(=O)Nc1ccc(-c2nc(N3CC4CCC(C3)O4)c3cnn(C4CCC5(CC4)OCCO5)c3n2)cc1
% of control [6]: 100%

C=CC(=O)Nc1ccc(C(=O)Nc2[nH]nc3c2CN(C(=O)N[C@H](CN(C)C)c2ccccc2)C3(C)C)cc1
% of engagement [7]: -4.6%

Cc1cc([C@@H](C)Nc2ccccc2C(=O)O)c2nc(N3CCOCC3)cc(=O)n2c1 [AZD-6482]
% of control [8]: 82%
% of control [9]: 98%

CC[C@@H]1[C@H](F)C(=O)N[C@@H]1COc1nccc2cc(C(N)=O)c(OC)cc12 [ZIMLOVISERTIB]
% of inhibition [10]: 2.8%

COc1cc(N(C)c2ccnc3ccc(C(F)(F)F)cc23)cc(OC)c1OC
% binding [11]: 98%

C=CC(=O)Nc1cccc(C(=O)Nc2ccc(Nc3cc(-c4[nH]c(SC)nc4C)ccn3)cc2)c1
% of control ([12]; at 1 µM): 92%
% of control ([12]; at 5 µM): 87%
